# Marks after values point to notes of the source that are not given here.
# What was measured:
# [1] = system: ddY female mice with ovary extraction; test: Weight of bone of both thighs in ovary-extracted mice; assay type: in vivo; settings: wet weight, FOSA group: Fosamax 10 mg/kg oral, 4 weeks
# Description: After sacrifice, a weight of bone of both thighs is calculated with g unit. To reduce an error arising from a difference of individual body weight, a weight of bone is calculated with relative weight as following equation. Weight of bone=[(absolute weight of bone/body weight at sacrifice)×100]
# [2] = system: ddY female mice with ovary extraction; test: Histological indices of trabecular and cortical bone of thigh in ovary-extracted mice; assay type: in vivo; settings: FOSA group: Fosamax 10 mg/kg oral, 4 weeks
# From the text: (§1) For histological analysis of experimental animals, the left thigh of each mouse is separated to fix in 10% neutral buffer formalin (NBF) solution, and then delimed during 5 days at delime solution [24.4% formic acid, […]] (the mixed delime solution is exchanged each day one times during 3 days). And then it is fixed to paraffin and then made fraction ([…]) and dyed with hematoxylineosin.
# Body weight, weight of both thigh, histological change including trabecular bone volume (TBV) % and Cortical bone thickness (Cbt) is analyzed. Also, histomorphometric changes of the trochoid bone of left thigh are observed. All experimental result of followings are shown with means±standard deviation. A statistical analysis is carried out by using SPSS For Windows (Release 6.1.3., SPSS Inc, USA) and Mann-Whitney U-Wilcoxon Rank Sum W test(M-W test).
# TBV is calculated by using a Auto Image analysis (analySIS Image Processing; SIS, Germany) under 100 magnifications on a microscope (Zeiss, Germany) for regular size of trabecular bone at the trochoid bone of […] (excluding a growth plate). TBV is calculated with (%) unit.
# A trabecular bone thickness (Tbt), a number of trabecular bone (Tbn), and a trabecular bone length (Tbl) are calculated by using a Auto Image analysis (analySIS Image Processing; SIS, Germany) under 100 magnifications on a microscope (Zeiss, Germany) for regular size at the trochoid bone of left thigh (excluding a growth plate). Tbt and Tbl are calculated with μm unit, and Tbn is calculated with a number of trabecular bone/all section of the trochoid bone section. Tbt and Tbl is calculated at trabecular bone that is most developed in a regular size of the trochoid bone section.
# Cbt is measured at the trochlea neck of thigh and calculated by using a Auto Image analysis (analySIS Image Processing; SIS, Genmany) under 200 magnifications on a microscope (Zeiss, Germany) at prepared histological sample.
# [3] = system: ddY female mice with ovary extraction; test: Histomorphometric changes of left thigh, Hematoxylin-Eosin dyeing; assay type: in vivo
# Description: as §1
# A histomorphometric change of left thigh is analyzed by dyeing with Hematoxylin-Eosin.
# [4] = FOSA group: Fosamax 10 mg/kg oral; I: body weight after sacrifice − after administration
# Description: 25 ddY female mice (age of 6 weeks, SLC, Japan) are used after adaptation during 7 days. The above animals are grouped each 5 and bred in a cage made of polycarbonate under the condition of temperature of 20˜25° C. and humidity of 30˜35%. A cycle of light and darkness is controlled to 12 hours: 12 hours. Feed stuff (Samyang Co., Korea) and water is fed freely. For 20 mice, the both ovary is taken out (ovary extraction : disclosing the both ovary, and then removing all of the both ovary, and then suturing with the same method), and for 5 mice, only sham surgical operation is carried out (sham surgical operation disclosing the both ovary by cutting (3 cm) a skin and an abdominal muscle, and then closing using a skin suturing technique). For the purpose of therapeutic research, a treatment is started after 4 weeks of the ovary extraction, each sample is administrated during 4 weeks.
# All sample is stored at a refrigerate (−10° C.) to prevent from a moisture and light. […]
# Change of body weight and increasing part is calculated after immediately surgical operation, after 4 weeks of surgical operation, after administration, and each week one times during experiment period. […] Also, an increasing part of body weight during adapting period (Increasing part I) and administrating period (Increasing part II) is calculated as followings. […]
compound,measurement,setting,value
"NCCCC(O)(P(=O)(O)O)P(=O)(O)O [FOSA, sodium alendronate]",Absolute weight of bone,[1],0.075 ± 0.006 g
same,Tbn number of trabecular bone,[2]; control 3.40 ± 1.14,15.20 ± 2.77
same,Tbt(μm) trabecular bone thickness,[2]; control 66.40 ± 11.70,93.60 ± 9.56 μm
same,Cbt(μm) Cortical bone thickness,[2]; control 99.20 ± 20.46,102.50 ± 22.29 μm
same,Tbl(μm) trabecular bone length,[2]; control 524.40 ± 176.78,"759.40 ± 89.17*^,## μm"
same,TBV (%) trabecular bone volume,"[2]; n = 5, control 20.23 ± 1.72, sham 47.31 ± 5.95",35.13 ± 4.28%
same,histomorphometric changes of trabecular bone of left thigh (FIG. 3),"[3]; Fosamax and beta-glucan groups compared with control group, width or number lower than sham group",many an extended trabecular bone
same,histomorphometric changes of cortical bone of left thigh (FIG. 4),"[3]; Fosamax group, 10 mg/kg oral, 4 weeks",Some increased or similar width and histomorphometric property comparing with control group
same,Increasing part II of body weight,[4],3.26 ± 2.73
